Laboratory results from patent US10435400B2, “2,4-disubstituted phenylene-1,5-diamine derivatives and applications thereof, and pharmaceutical compositions and pharmaceutically acceptable compositions prepared therefrom” (SHANGHAI HAIYAN PHARMACEUTICAL TECHNOLOGY CO., LTD., priority 2014, dated 2019).
Where two headings read alike, the source gives them in different places.

Legend:
H1975 cells [1] = assay: Cytostatic activity by MTT method, H1975 cells; type: cell-based; settings: for IC50: read-out: H1975 cells (IC50/nM); for selective inhibitory activity against the cell growth [IC50 (A431 cells)/IC50 (H1975 cells)]: ratio of IC50 values
H1975 cells [2] = assay: ELISA screening EGFR T790M inhibitor for cell activity, H1975 cells; type: cell-based; settings: for IC50: read-out: H1975 cells (IC50/nM); for Selective inhibitory activities of target on cellular level [IC50 (A431 cells)/IC50 (H1975 cells)]: ratio of IC50 values
Experimental: (§6) The reagents, preparation methods of the solution, as well as the procedures of cell treatments and preparation of lysate, and the test steps of ELISA in the following method were conducted according to the instructions of R&D DYC3570, R&D DYC1095E and R&D DYC1095BE.
(§7) Cell lysates: cell lysis buffer+10 μg/ml Aprotinin (Sigma), 10 μg/ml Leupeptin (Sigma). All reagents were prepared when using.
(2) The test compounds were diluted according to the method in MTT assay, and 10 μl of diluted compound or DMSO was added to the corresponding plate well, and incubated at 37° C. with 5% CO2 for 1 h. The final concentration of DMSO was 0.5%. Cell culture system merely treated with DMSO was used as cell control.
(3) 100 μl cell lysate was added after aspirating the medium, sealed and placed in a refrigerator at −80° C. overnight. Cell lysis buffer used as blank control.
The assay was operated according to the instructions of R&D DYC1095E or R&D DYC1095BE.
(§8) (5) 40 μl of cell lysis buffer and 60 μl of cell lysates were added, and incubated at 25° C. for 2 h under shaking;
(7) Detection antibody was diluted according to a predetermined ratio as stipulated in kit instructions by using IC diluent, and 100 μl of the diluted Detection Antibody was added to each well, and incubated at 25° C. for 1 h under shaking in darkness;
(9) reagent A and reagent B of TMB substrate (R & D DY999) were mixed with 1:1, and 100 μl of substrate was added to each well, and incubated at 25° C. for 20 minutes under shaking in darkness;
(11) The OD450 values and OD570 values of the cell control, blank control and compound treatment were measured respectively by using microplate reader (Thermo Multiskan K3), and the corresponding OD570 values were subtracted from OD450 values of the same wells to get the ODcell, ODblank and ODcompound treatment respectively.
2.3 Data Analysis Inhibition ratio (%)=100%×(ODcell−ODcompound treatment)(ODcell−ODblank)

A431 cells [3] = assay: ELISA cell activity, EGF-stimulated A431 cells; type: cell-based;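 also: Serum-starved A431 cells pretreated with compound for 1 h, then stimulated with EGF for 45 min, lysates read by ELISA (OD450 minus OD570), EGF-only wells as control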
Experimental: as §6, §7
(2) The medium of A431 cells was changed to 90 ul of DMEM FBS free medium, and incubated overnight.
(3) The test compounds were diluted according to the method in MTT assay, 10 μl of diluted compound or DMSO was added to the corresponding plate well, and incubated at 37° C. with 5% CO2 for 1 h. The final concentration of DMSO was 0.5%. 10 μl of 2 μg/L EGF was then added to each well except the cell control well, 10 μl of FBS free DMEM was added to the well, and incubated for 45 minutes; the EGF-free and compound treatment-free cells were used as cell control, and the compound treatment-free but only EGF-treated cells were used as EGF control.
(4) 100 μl cell lysate was added after aspirating the medium, sealed and placed in refrigerator at −80° C. overnight.
The assay was operated according to the instructions of R&D DYC3570E.
as §8
(7) Detection antibody was diluted according to a predetermined ratio of kit instruction by using IC dilution, and 100 μl of the diluted Detection Antibody was added to each well, and incubated at 25° C. for 1 h under shaking in darkness;
(9) reagent A and reagent B of TMB substrate (R & D DY999) were mixed at 1:1, 100 μl of substrate was added to each well, and incubated at 25° C. for 20 minutes under shaking in darkness;
(11) The OD450 values and OD570 values of the cell control, blank control and compound treatment were measured respectively by using microplate reader (Thermo Multiskan K3), and the corresponding OD570 values were subtracted from OD450 values of the same wells to get the ODEGF, ODcompound and ODcell respectively.

NIH3T3 cells = assay: Cytotoxicity by MTT method, NIH3T3 cells; type: cell-based; settings: read-out: NIH3T3 cells MTT assay (IC50/nM);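 also: cells grown in 96-well plates with compound for 72 h, then given MTT for a further 4 h at 37 °C under 5% CO2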
Experimental: (§9) After rinsed for one time, 1.5 ml trypsin/EDTA was added to digest the adherent cells until the cells detached, and then 3.5 ml of medium was added to terminate the trypsinization. The digested cell suspension was transferred to a 15 ml falcon tube, and spun at 1300 rpm for 3 min, the supernatant was discarded, and cells were suspended in fresh medium.
(§10) The cells were added into the incubator after addition of the test compound, and incubated for 72 h, 10 μl of 5 mg/ml MTT (Sigma, M5655) solution was added to each well of the plate, and incubated the 96-well plates at 37° C. 5% CO2 for 4 h in a incubator.
(§11) The plates were spun at 2000 rpm for 5 min.

EGFR WT kinase = EGFR WT kinase (Homo sapiens (Human), UniProt P00533); assay: Wild type EGFR kinase inhibition test (z-lyte); type: biochemical; settings: 10 μM ATP
A431 cells [4] = assay: Cytostatic activity by MTT method, A431 cells; settings: read-out: A431 cells (IC50/nM);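 also: viability read by MTT reduction after compound exposure, with MTT incubated for a further 4 h at 37 °C under 5% CO2 in 96-well plates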
Experimental: as §9, §10, §11

[5] = In vivo pharmacokinetic test in rats; settings: male, SD, rat, plasma
Source text: (§1) LC/MS/MS method was applied for the determination of the drug concentration in plasma at different times after the example compounds were orally and intravenously administered to rats or mice in order to study the pharmacokinetic behavior of the compounds of the invention in vivo in rats or mice and evaluate their pharmacokinetic characteristics.
(§2) Test Animals: healthy Adult male SD rats (weight 200-300 g, 6, fasted) or male CD1 mice (weight 20-30 g, 18, free access to water and food), provided by SLAC company;
(§3) Administration and Dosage: (1 mg/kg, 5 ml/kg, 5% DMAC (dimethylacetamide), 5% Solutol HS 15 (polyethylene glycol-15 hydroxystearate) and 90% saline was intravenously administered via foot dorsal vein and (20 mg/kg, 10 ml/kg, 0.5% CMC-Na solution) was administered via oral gavage to SD rats; (1 mg/kg, 5 ml/kg, 5% DMAC, 5% Solutol HS 15 and 90% Saline) was administered intravenously via tail vein and (5 mg/kg, 10 mL/kg, 0.5% CMC-Na aqueous solution) was administered via oral gavage to CD1 mice.
(§4) Blood collection: firstly, the animals which were selected to meet the test requirements prior to administration were weighed. The rats or mice were bound before the blood collection, blood from each administered rat was taken at predetermined time points (intravenous administration: blood was collected at 0.083, 0.25, 0.5, 1, 2, 4, 8, 24 h before and after administration respectively, 9 time points in total; gavage: blood was collected at 0.083, 0.25, 0.5, 1, 2, 4, 8, 24 h before and after administration respectively, 9 time points in total), about 150 μl of blood was collected via tail vein or heart (blood terminal). Blood from each administered mouse was taken blood at predetermined time points (tail vein: blood was collected at 0.083, 0.25, 0.5, 1, 2, 4, 8, 24 h, 8 time points in total; gavage: blood was collected at 0.25, 0.5, 1, 2, 4, 8, 24 h, 7 time points in total), about 150 μl of blood was collected via orbital or heart (blood terminal). Blood was transferred to a 1.5 ml tube to which K2EDTA was added previously. The collected blood sample was put on ice, and centrifuged to obtain plasma sample (2000 g, 5 min under 4° C.) within 15 minutes. All the plasma samples were stored at approximately −70° C. until analysis.
(§5) LC/MS/MS method was applied to determine the concentrations of the drug. At the same dose and administration, pharmacokinetic parameters of some example compounds of the invention in rats and mice were shown in Table 9: […]

[6] = In vivo pharmacokinetic test in mice; settings: male, CD1, mouse, plasma
Source text: as §1, §2, §3, §4, §5

[7] = system: T790M mutant cell line H1975; settings: background statement; almost no activity; cited from earlier work
[8] = ELISA, compound 1 h then EGF 45 minutes, read-out: A431 cells (IC50/nM)
[9] = IV 1 mg/kg, read-out: Half-life T½ (converted)

Sequence of EGFR WT kinase (P00533 25-1210): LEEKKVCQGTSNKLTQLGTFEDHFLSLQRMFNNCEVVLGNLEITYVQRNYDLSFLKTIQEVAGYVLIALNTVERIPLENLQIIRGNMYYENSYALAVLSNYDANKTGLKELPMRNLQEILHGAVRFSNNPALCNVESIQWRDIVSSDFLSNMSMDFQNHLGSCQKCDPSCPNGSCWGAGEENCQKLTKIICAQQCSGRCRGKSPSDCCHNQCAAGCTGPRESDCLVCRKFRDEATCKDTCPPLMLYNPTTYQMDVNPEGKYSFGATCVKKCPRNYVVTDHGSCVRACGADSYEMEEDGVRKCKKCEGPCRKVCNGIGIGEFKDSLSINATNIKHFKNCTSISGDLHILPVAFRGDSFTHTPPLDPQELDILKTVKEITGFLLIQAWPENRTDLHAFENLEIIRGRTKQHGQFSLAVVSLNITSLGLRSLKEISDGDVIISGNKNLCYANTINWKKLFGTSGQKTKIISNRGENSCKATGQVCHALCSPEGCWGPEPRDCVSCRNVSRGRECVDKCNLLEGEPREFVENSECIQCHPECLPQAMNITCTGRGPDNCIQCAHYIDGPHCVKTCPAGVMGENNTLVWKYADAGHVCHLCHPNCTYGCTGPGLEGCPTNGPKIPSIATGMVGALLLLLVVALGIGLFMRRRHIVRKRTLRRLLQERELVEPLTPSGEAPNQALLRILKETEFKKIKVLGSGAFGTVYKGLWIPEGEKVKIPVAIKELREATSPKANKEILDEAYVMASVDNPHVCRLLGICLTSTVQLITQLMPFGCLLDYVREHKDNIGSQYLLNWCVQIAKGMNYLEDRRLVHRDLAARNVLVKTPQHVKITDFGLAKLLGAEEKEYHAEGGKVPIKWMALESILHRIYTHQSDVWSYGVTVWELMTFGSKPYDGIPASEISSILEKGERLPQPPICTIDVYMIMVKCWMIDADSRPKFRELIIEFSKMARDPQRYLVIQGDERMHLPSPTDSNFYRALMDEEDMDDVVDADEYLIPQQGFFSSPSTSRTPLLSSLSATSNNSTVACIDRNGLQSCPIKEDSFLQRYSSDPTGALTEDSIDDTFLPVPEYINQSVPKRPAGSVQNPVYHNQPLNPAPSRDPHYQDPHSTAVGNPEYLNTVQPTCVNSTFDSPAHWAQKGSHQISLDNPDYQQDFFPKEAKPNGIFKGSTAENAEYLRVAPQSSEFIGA

Compound | IC50 (H1975 cells [1]; MTT, 72 h) [nM] | selective inhibitory activity against the cell growth [IC50 (A431 cells)/IC50 (H1975 cells)] (H1975 cells [1]; MTT) | IC50 (H1975 cells [2]; ELISA, compound 1 h) [nM] | Selective inhibitory activities of target on cellular level [IC50 (A431 cells)/IC50 (H1975 cells)] (H1975 cells [2]; ELISA) | IC50 (A431 cells [3]; [8]) [nM] | IC50 (NIH3T3 cells; cytotoxicity, MTT, 72 h) [nM] | IC50 (EGFR WT kinase) [nM] | IC50 (A431 cells [4]; MTT, 72 h) [nM] | activity in T790M mutant cell line H1975 [7] | also measured
C=CC(=O)Nc1cc(Nc2nccc(-c3cnc4c(ccn4C)c3)n2)c(OC)cc1OCCN(C)C [Compound Z-117] | 19 | 68.5 | 18 | 9.1 | 164 | > 10000 | 8 | 1300 | – | –
C=CC(=O)Nc1cc(Nc2ncc(Cl)c(-c3cnc4c(ccn4C(C)C)c3)n2)c(OC)cc1N(C)CCN(C)C [Compound Z-125] | 13 | 101.2 | 47 | 6.2 | 291 | 4660 | 14 | 1320 | – | –
C=CC(=O)Nc1cc(Nc2ncc(Cl)c(-c3cnc4c(ccn4C4CC4)c3)n2)c(OC)cc1N(C)CCN(C)C [Compound Z-126] | 10 | 49.5 | 20 | 11.5 | 229 | 4910 | 7 | 495 | – | –
C=CC(=O)Nc1cc(Nc2nccc(-c3cn(C)c4ccccc34)n2)c(OC)cc1N(C)CCN(C)C [comparative compound 1, reference compound] | – | – | – | – | – | – | – | – | – | half-life [5, 9]: 497 min; bioavailability ([5]; oral gavage 20 mg/kg vs IV 1 mg/kg, read-out: Oral relative bioavailability F): 18.5%; IC50 (H1975 cells [1]; Homo sapiens, NCI-H1975, 72 h): 13 nM; IC50 (H1975 cells [2]; Homo sapiens, NCI-H1975, 1 h): 29 nM; IC50 (A431 cells [3]; Homo sapiens, A-431, read-out: A431 cells (IC50/nM)): […]; IC50 (NIH3T3 cells; Mus musculus, NIH3T3, 72 h): 3550 nM; IC50 (A431 cells [4]; Homo sapiens, A-431, 72 h): […]; half-life [6, 9]: 119 min; bioavailability ([6]; oral gavage 5 mg/kg vs IV 1 mg/kg, read-out: Oral relative bioavailability F): 30.2%
C#Cc1cccc(Nc2ncnc3cc(OCCOC)c(OCCOC)cc23)c1 [erlotinib] | – | – | – | – | – | – | – | – | greater than 3 uM | –
COc1cc2ncnc(Nc3ccc(F)c(Cl)c3)c2cc1OCCCN1CCOCC1 [gefitinib] | – | – | – | – | – | – | – | – | greater than 3 uM | –
